Results on 12 molecules are retold here after patent US20240116985A1, “STAPLED PEPTIDES AND METHODS THEREOF” (priority 2020, published 2024).

Where two headings read alike, the source gives them in different places.

Test [1] addresses T1, beta-catenin/TCF4 engagement (Homo sapiens, UniProt P35222).
T1 construct: expressed in transfected cells; host or cells: HEK293
T1 sequence (P35222 1-781): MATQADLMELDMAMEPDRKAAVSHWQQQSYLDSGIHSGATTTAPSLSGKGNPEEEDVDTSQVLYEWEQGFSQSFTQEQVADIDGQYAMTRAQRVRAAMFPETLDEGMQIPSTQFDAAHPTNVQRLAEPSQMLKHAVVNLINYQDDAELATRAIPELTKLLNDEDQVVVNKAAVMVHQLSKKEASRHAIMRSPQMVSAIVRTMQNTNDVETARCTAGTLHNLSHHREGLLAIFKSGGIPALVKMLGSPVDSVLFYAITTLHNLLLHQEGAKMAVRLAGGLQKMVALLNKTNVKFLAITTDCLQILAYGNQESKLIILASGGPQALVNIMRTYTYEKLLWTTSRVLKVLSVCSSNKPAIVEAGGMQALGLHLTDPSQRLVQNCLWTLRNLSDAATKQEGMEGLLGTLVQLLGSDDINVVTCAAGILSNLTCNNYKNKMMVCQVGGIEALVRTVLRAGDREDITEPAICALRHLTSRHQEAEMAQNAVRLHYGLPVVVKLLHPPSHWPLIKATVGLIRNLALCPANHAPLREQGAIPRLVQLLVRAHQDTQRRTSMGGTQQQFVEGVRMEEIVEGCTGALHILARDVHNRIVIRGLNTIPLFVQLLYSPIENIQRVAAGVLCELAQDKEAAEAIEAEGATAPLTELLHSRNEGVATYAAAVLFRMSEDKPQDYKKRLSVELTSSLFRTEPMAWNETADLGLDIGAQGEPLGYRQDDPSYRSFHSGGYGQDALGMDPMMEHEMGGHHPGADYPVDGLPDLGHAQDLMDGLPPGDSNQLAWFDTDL
Nature of the test: Nano-BRET target engagement assay (B-cat-Halo & TCF4-Luc in HEK293 cells). It counts as cell-based. The conditions noted are these: absolute IC50; read-out: NanoBRET Abs IC50.

Test [2] concerns the target T2, full-length beta-Catenin (Uniprot ID P35222) (Homo sapiens, UniProt P35222).
T2 construct: 10 nM full-length beta-Catenin (Uniprot ID P35222)
T2 sequence (P35222 1-781): T1 sequence (P35222 1-781)
Nature of the test: Fluorescence polarization IC50 (beta-catenin / 5FAM-TCF4 10-53 competition). Format: binding. The conditions noted are these: fluorescence polarization. A general note: Fluorescence polarisation rises when a labelled molecule tumbles more slowly, as on binding a larger partner.

Where [3] appears, read: beta-catenin, read-out: FP EC50.

On to `CC(=O)N1CCC[C@]12CC=CCCCC1(CCCC=CCCCOC(=O)N3CC[C@@](C(=O)N[C@@H](Cc4ccsc4)C(=O)N[C@@H](Cc4csc5ccccc45)C(=O)N[C@@H](CCC(N)=O)C(N)=O)(C3)NC(=O)[C@H](CC(C)C)NC(=O)[C@H](Cc3ccccc3)NC(=O)[C@H](C)NC(=O)[C@H](C)NC(=O)[C@H](CO)NC(=O)[C@H](CC(=O)O)NC1=O)NC(=O)[C@H](CC(C)(C)C)NC(=O)[C@H](CC(=O)O)NC2=O` (stereo partly drawn) [I-1443, Ac-PL3-Asp-Npg-B5-Asp-Ser-Ala-Ala-Phe-Leu-PyrS2-3Thi-BztA-Gln-NH2], for which the IC50 in test [1] stood at 9500 nM; in test [2] (read-out: beta-Catenin FP IC50), 24 nM.
As for `CC(=O)N1CCC[C@]12CC=CCCCC1(CCCC=CCCCOC(=O)N3CC[C@@](C(=O)N[C@@H](Cc4ccsc4)C(=O)N[C@@H](Cc4csc5ccccc45)C(=O)N[C@@H](CCC(N)=O)C(N)=O)(C3)NC(=O)[C@H](CC(C)C)NC(=O)[C@H](Cc3ccccc3)NC(=O)[C@H](C)NC(=O)[C@H](C)NC(=O)[C@H](Cc3cn(CC(=O)O)c4ccccc34)NC(=O)[C@H](CC(=O)O)NC1=O)NC(=O)[C@H](CC(C)(C)C)NC(=O)[C@H](CC(=O)O)NC2=O` (stereo partly drawn) [I-1445, Ac-PL3-Asp-Npg-B5-Asp-1AcAW-Ala-Ala-Phe-Leu-PyrS2-3Thi-BztA-Gln-NH2], the figures for the IC50 in test [1] and in test [2] (read-out: beta-Catenin FP IC50) were 11100 nM and 13 nM, respectively.
Consider `CC(=O)N1CCC[C@]12CC=CCCCC1(CCCC=CCCCOC(=O)N3CC[C@@](C(=O)N[C@@H](Cc4ccccc4Cl)C(=O)N[C@@H](Cc4csc5ccccc45)C(=O)N[C@@H](CCC(N)=O)C(N)=O)(C3)NC(=O)[C@H](CC(N)=O)NC(=O)[C@H](Cc3ccccc3)NC(=O)[C@H](C)NC(=O)[C@H](C)NC(=O)[C@H](CN(CCCC(F)(F)F)CC(=O)O)NC(=O)[C@H](CC(=O)O)NC1=O)NC(=O)[C@H](CC(C)(C)C)NC(=O)[C@H](CC(=O)O)NC2=O` (stereo partly drawn) [I-1446, Ac-PL3-Asp-Npg-B5-Asp-[Tfb]GA-Ala-Ala-Phe-Asn-PyrS2-2C1F-BztA-Gln-NH2], for which the IC50 in test [1] worked out at 35200 nM; in test [2] (read-out: beta-Catenin FP IC50), 9 nM.
On the same counts, the results for `CC(=O)N1CCC[C@]12CC=CCCCC1(CCCC=CCCCOC(=O)N3CC[C@@](C(=O)N[C@@H](Cc4ccccc4Cl)C(=O)N[C@@H](Cc4csc5ccccc45)C(=O)N[C@@H](CCC(N)=O)C(N)=O)(C3)NC(=O)[C@H](CC(N)=O)NC(=O)[C@H](Cc3ccccc3)NC(=O)[C@H](C)NC(=O)[C@H](C)NC(=O)[C@H](CN(CC(=O)O)Cc3ccccc3)NC(=O)[C@H](CC(=O)O)NC1=O)NC(=O)[C@H](CC(C)(C)C)NC(=O)[C@H](CC(=O)O)NC2=O` (stereo partly drawn) [I-1447, Ac-PL3-Asp-Npg-B5-Asp-[Bn]GA-Ala-Ala-Phe-Asn-PyrS2-2C1F-BztA-Gln-NH2] are 43400 nM and 11 nM.
As for `CC(=O)N1CCC[C@]12CC=CCCCC1(CCCC=CCCCOC(=O)N3CC[C@@](C(=O)N[C@@H](Cc4ccccc4Cl)C(=O)N[C@@H](Cc4csc5ccccc45)C(=O)N[C@@H](CCC(N)=O)C(N)=O)(C3)NC(=O)[C@H](CC(N)=O)NC(=O)[C@H](Cc3ccccc3)NC(=O)[C@H](C)NC(=O)[C@H](C)NC(=O)[C@H](CN(CC(=O)O)Cc3c(F)c(F)c(F)c(F)c3F)NC(=O)[C@H](CC(=O)O)NC1=O)NC(=O)[C@H](CC(C)(C)C)NC(=O)[C@H](CC(=O)O)NC2=O` (stereo partly drawn) [I-1449, Ac-PL3-Asp-Npg-B5-Asp-[Pfbn]GA-Ala-Ala-Phe-Asn-PyrS2-2C1F-BztA-Gln-NH2], the IC50 was determined as 29300 nM in test [1], 16 nM in test [2] (setting [3]) and 16 nM in test [2] (read-out: beta-Catenin FP IC50).
On to `CC(=O)N1CCC[C@]12CC=CCCCC1(CCCC=CCCCOC(=O)N3CC[C@@](C(=O)N[C@@H](Cc4ccccc4Cl)C(=O)N[C@@H](Cc4csc5ccccc45)C(=O)N[C@@H](CCC(N)=O)C(N)=O)(C3)NC(=O)[C@H](CC(N)=O)NC(=O)[C@H](Cc3ccccc3)NC(=O)[C@H](C)NC(=O)[C@H](C)NC(=O)[C@H](CN(CC(=O)O)C(C)C)NC(=O)[C@H](CC(=O)O)NC1=O)NC(=O)[C@H](CC(C)(C)C)NC(=O)[C@H](CC(=O)O)NC2=O` (stereo partly drawn) [I-1451, Ac-PL3-Asp-Npg-B5-Asp-[iPr]GA-Ala-Ala-Phe-Asn-PyrS2-2C1F-BztA-Gln-NH2], for which the results for the IC50 in test [1] and in test [2] (read-out: beta-Catenin FP IC50) were 26200 nM and 13 nM, respectively.
With `CC(=O)N1CCC[C@]12CC=CCCCC1(CCCC=CCCCCCC[C@@](C)(C(=O)N[C@@H](Cc3ccsc3)C(=O)N[C@@H](Cc3csc4ccccc34)C(=O)N[C@@H](CCC(N)=O)C(N)=O)NC(=O)[C@H](CC(N)=O)NC(=O)[C@H](Cc3ccccc3)NC(=O)[C@H](C)NC(=O)[C@H](C)NC(=O)[C@H](CN(CCCC(F)(F)F)CC(=O)O)NC(=O)[C@H](CC(=O)O)NC1=O)NC(=O)[C@H](CC(C)(C)C)NC(=O)[C@H](CC(=O)O)NC2=O` (stereo partly drawn) [I-1454, Ac-PL3-Asp-Npg-B5-Asp-[Tfb]GA-Ala-Ala-Phe-Asn-S8-3Thi-BztA-Gln-NH2], the IC50 is 26800 nM in test [1], 22 nM in test [2] (setting [3]) and 22 nM in test [2] (read-out: beta-Catenin FP IC50).
With `CC(=O)N1CCC[C@]12CC=CCCCC1(CCCC=CCCCCCC[C@@](C)(C(=O)N[C@@H](Cc3ccsc3)C(=O)N[C@@H](Cc3csc4ccccc34)C(=O)N[C@@H](CCC(N)=O)C(N)=O)NC(=O)[C@H](CC(N)=O)NC(=O)[C@H](Cc3ccccc3)NC(=O)[C@H](C)NC(=O)[C@H](C)NC(=O)[C@H](CN(CCCC(F)(F)F)CC(=O)O)NC(=O)[C@H](CC(=O)O)NC1=O)NC(=O)[C@H](CC(C)(C)C)NC(=O)[C@H](CC(=O)O)NC2=O` (stereo partly drawn) [I-1455, Ac-PL3-Asp-Npg-B5-Asp-[Tfb]GA-Ala-Ala-Phe-Asn-S8-3Thi-BztA-Gln-NH2], the IC50 in test [1] is 23100 nM; in test [2] (setting [3]), 13 nM; in test [2] (read-out: beta-Catenin FP IC50), 13 nM.
For the molecule `CC(=O)N1CCC[C@]12CC=CCCCC1(CCCC=CCCCCCC[C@@](C)(C(=O)N[C@@H](Cc3ccsc3)C(=O)N[C@@H](Cc3csc4ccccc34)C(=O)N[C@@H](CCC(N)=O)C(N)=O)NC(=O)[C@H](CC(N)=O)NC(=O)[C@H](Cc3ccccc3)NC(=O)[C@H](C)NC(=O)[C@H](C)NC(=O)[C@H](CN(CC(=O)O)Cc3ccccc3)NC(=O)[C@H](CC(=O)O)NC1=O)NC(=O)[C@H](CC(C)(C)C)NC(=O)[C@H](CC(=O)O)NC2=O` (stereo partly drawn) [I-1456, Ac-PL3-Asp-Npg-B5-Asp-[Bn]GA-Ala-Ala-Phe-Asn-S8-3Thi-BztA-Gln-NH2], the figures for the IC50 in test [1] and in test [2] (read-out: beta-Catenin FP IC50) were 23700 nM and 16 nM, respectively.
In the case of `CC(=O)N1CCC[C@]12CC=CCCCC1(CCCC=CCCCOC(=O)N3CC[C@@](C(=O)N[C@@H](Cc4ccccc4Cl)C(=O)N[C@@H](Cc4csc5ccccc45)C(=O)N[C@@H](CCC(N)=O)C(N)=O)(C3)NC(=O)[C@H](CC(N)=O)NC(=O)[C@H](Cc3ccccc3)NC(=O)[C@H](C)NC(=O)[C@H](C)NC(=O)[C@H](CNCCC(F)(F)F)NC(=O)[C@H](CC(=O)O)NC1=O)NC(=O)[C@H](CC(C)(C)C)NC(=O)[C@H](CC(=O)O)NC2=O` (stereo partly drawn) [I-1457, Ac-PL3-Asp-Npg-B5-Asp-[Tfp]Dap-Ala-Ala-Phe-Asn-PyrS2-2C1F-BztA-Gln-NH2], the IC50 in test [1] is over 20000 nM; in test [2] (read-out: beta-Catenin FP IC50) it was 43 nM.
Regarding `CC(=O)N1CCC[C@]12CC=CCCCC1(CCCC=CCCCCCC[C@@](C)(C(=O)N[C@@H](Cc3ccccc3)C(=O)N[C@@H](Cc3csc4ccccc34)C(=O)N[C@@H](CCC(N)=O)C(N)=O)NC(=O)[C@H](CCC(N)=O)NC(=O)[C@H](Cc3ccccc3)NC(=O)[C@H](C)NC(=O)[C@H](C)NC(=O)[C@H](CCC(=O)O)NC(=O)[C@H](CC(=O)O)NC1=O)NC(=O)[C@H](CC(C)C)NC(=O)[C@H](CC(=O)O)NC2=O` (stereo partly drawn) [I-1458, Ac-PL3-Asp-Leu-B5-Asp-Glu-Ala-Ala-Phe-Gln-S8-Phe-BztA-Gln-NH2], the IC50 is 18100 nM in test [1] and 26 nM in test [2] (read-out: beta-Catenin FP IC50).
For the molecule `CC(=O)N1CCC[C@]12CC=CCCCC1(CCCC=CCCCOC(=O)N3CC[C@@](C(=O)N[C@@H](Cc4ccsc4)C(=O)N[C@@H](Cc4csc5ccccc45)C(=O)N[C@@H](CCC(N)=O)C(N)=O)(C3)NC(=O)[C@H](CC(C)C)NC(=O)[C@H](Cc3ccccc3)NC(=O)[C@H](C)NC(=O)[C@H](C)NC(=O)[C@H](CC(=O)O)NC(=O)[C@H](CC(=O)O)NC1=O)NC(=O)[C@H](CCCCNC(=O)COCCOCCNC(=O)CC[C@@H](C)[C@H]1CC[C@H]3[C@@H]4CC[C@@H]5C[C@H](O)CC[C@]5(C)[C@H]4CC[C@]13C)NC(=O)[C@H](CC(=O)O)NC2=O` (stereo partly drawn) [I-1470, Ac-PL3-Asp-[lithocholate-PEG2]-Lys-B5-Asp-Asp-Ala-Ala-Phe-Leu-PyrS2-3Thi-BztA-Gln-NH2], the IC50 in test [1] was over 20000 nM; in test [2] (read-out: beta-Catenin FP IC50), 57 nM.
